Counter-ions that a name gives are not always drawn. Like-named read-outs stand apart in the source and are kept apart here.

Assay [1] relates to EVSA-T (human breast carcinoma). As to the kind of experiment: Anti-proliferative activity, Alamar Blue assay, EVSA-T. In kind it is cell-based. Background: Alamar Blue is a resazurin reagent that responds to reducing activity.
Assay [2] has as its target T1, BIR3 domain of human XIAP (Homo sapiens, UniProt P98170).
T1 construct: BIR3 domain of human XIAP (residues 252-350) fused to a His-tag; His-tag (cleaved yes); made in house; host or cells: Escherichia coli
As to the kind of experiment: XIAP in vitro competitive displacement binding assay (fluorescence polarization).

Where [3] appears, read: Homo sapiens, EVSA-T, read-out: EC50 in EVSA-T cell line assays.
The mark [4] stands for this setting: EVSA-T cells, 72 hours, Alamar Blue, dihydrochloride, read-out: EVSA-T prolif.
The mark [5] stands for this setting: Homo sapiens, EVSA-T, 72 h, EVSA-T cells, 72 hours, Alamar Blue, read-out: EVSA-T prolif.

T1 sequence (P98170 252-350): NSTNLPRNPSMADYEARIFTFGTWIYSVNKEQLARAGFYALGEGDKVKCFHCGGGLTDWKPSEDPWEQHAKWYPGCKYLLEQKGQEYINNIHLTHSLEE

Consider `C[C@@H]1CN(CC(=O)N2CC(C)(C)c3ncc(Cc4ccc(F)cc4)cc32)[C@@H](CN2CCCCC2C(F)(F)F)CN1` (single isomer, unassigned) [Example 24, 1-{6-[(4-Fluorophenyl)methyl]-3,3-dimethyl-1H,2H,3H-pyrrolo[3,2-b]pyridin-1-yl}-2-[(2R,5R)-5-methyl-2-{[2-([R or S]trifluoromethyl)piperidin-1-yl]methyl}piperazin-1-yl]ethan-1-one hydrochloride], for which the EC50 in assay [1] (EVSA-T cells, 72 hours, Alamar Blue, hydrochloride, read-out: EVSA-T prolif) was 13 nM; in assay [1] (setting [3]), below 1000 nM. Moreover, the IC50 (usually the midpoint of a concentration-inhibition curve) in assay [2] (plain number = IC50, average where more than one data point, read-out: Xiap IC50 or PI μM (IC50)) stood at 0.13 µM.

With `C[C@@H]1CN(CC(=O)N2CC(C)(C)c3ncc(C(O)c4c(F)cccc4F)cc32)[C@@H](CN2[C@H](C)COC[C@H]2C)CN1` (single isomer, unassigned) [Example 117, 1-{(R or S)-6-[(2,6-Difluorophenyl)(hydroxy)meth-yl]-3,3-dimethyl-1H,2H,3H-pyrrolo[3,2-]pyridin-1-yl}-2-[(2R,5R)-2-{[(3R,5R)-3,5-dimethylmorpholin-4-yl]methyl}-5-methylpiperazin-1-yl]ethan-1-one dihydrochloride], in assay [2] (1 h, PI at 0.04 μM, read-out: Xiap IC50 or PI μM (PI)), the inhibition at 0.04 µM turned out to be 41%. On to `C[C@@H]1CN(CC(=O)N2CC(C)(C)c3ncc(C(O)c4ccc(F)cc4F)cc32)[C@@H](CN2[C@H](C)COC[C@H]2C)CN1` (single isomer, unassigned) [Example 104, (R or S)-1-{6-[(2,4-Difluorophenyl)(hydroxy)meth-yl]-3,3-dimethyl-1H,2H,3H-pyrrolo[3,2-b]pyridin-1-yl}-2-[(2R,5R)-2-{[(3R,5R)-3,5-dimethylmorpholin-4-yl]methyl}-5-methylpiperazin-1-yl]ethan-1-one dihydrochloride], for which the EC50 in assay [1] (setting [4]) was determined as 1.3 nM.

`C[C@@H]1CN(CC(=O)N2CC(C)(C)c3ncc(C(O)c4ccccc4)cc32)[C@@H](CN2[C@H](C)COC[C@H]2C)CN1` (single isomer, unassigned) [Example 114, 2-[(2R,5R)-2-{[(3R,5R)-3,5-Dimethymorpholin-4-yl]methyl}-5-methylpiperazin-1-yl]-1-{(R or S)-6-[hydroxy(phenyl)methyl]-3,3-dimethyl-1H,2H,3H-pyrrolo[3,2-b]pyridin-1-yl}ethan-1-one dihydrochloride]: in assay [1] (setting [4]), the EC50 stood at 24 nM. On to `C[C@@H]1CN(CC(=O)N2CC(C)(C)c3ncc(Cc4ccc(F)cc4)cc32)[C@@H](CN2CCOCC(F)(F)C2)CN1` [Example 28, 2-[(2R,5R)-2-[(6,6-Difluoro-1,4-oxazepan-4-yl)methyl]-5-methylpiperazin-1-yl]-1-{6-[(4-fluorophenyl)methyl]-3,3-dimethyl-1H,2H,3H-pyrrolo[3,2-b]pyridin-1-yl}ethan-1-one dihydrochloride], for which the EC50 in assay [1] (setting [5]) is 3.1 nM; in assay [1] (setting [3]), below 1000 nM. For `C[C@@H]1CN(CC(=O)N2CC(C)(C)c3ncc(Cc4ccc(F)cc4)cc32)[C@@H](CN2CCOCC23CC3)CN1` [Example 10, 1-{6-[(4-Fluorophenyl)methyl]-3,3-dimethyl-1H,2H,3H-pyrrolo[3,2-b]pyridin-1-yl}-2-[(2R,5R)-5-methyl-2-{7-oxa-4-azaspiro[2.5]octan-4-ylmethyl}piperazin-1-yl]ethan-1-one dihydrochloride] the same measures were 0.42 nM and below 1000 nM. Take `C[C@@H]1CN(CC(=O)N2CC(C)(C)c3ncc(Cc4ccc(F)cc4)cc32)[C@@H](CN2C[C@H](CO)OC[C@H]2C)CN1` [Example 119, 1-{6-[(4-Fluorophenyl)methyl]-3,3-dimethyl-1H,2H,3H-pyrrolo[3,2-b]pyridin-1-yl}-2-[(2R,5R)-2-{[(2R,5R)-2-(hydroxymethyl)-5-methylmorpholin-4-yl]methyl}-5-methylpiperazin-1-yl]ethan-1-one, dihydrochloride]: the results for the EC50 in assay [1] (setting [5]) and in assay [1] (setting [3]) were 0.32 nM and below 1000 nM, respectively. For `CCCC(O)c1cc2c(cn1)C(C)(C)CN2C(=O)CN1C[C@@H](C)NC[C@@H]1CN1[C@H](C)COC[C@H]1C` (stereo partly drawn) [Example 90, 2-[(2R,5R)-2-{[(3R,5R)-3,5-Dimethylmorpholin-4-yl]methyl}-5-methylpiperazin-1-yl]-1-[6-(1-hydroxybutyl)-3,3-dimethyl-1H,2H,3H-pyrrolo[3,2-c]pyridin-1-yl]ethan-1-one dihydrochloride] the same measures were 29 nM and below 1000 nM. In the case of `C[C@@H]1CN(CC(=O)N2CC(C)(C)c3ncc(Cc4ccc(F)cc4)cc32)[C@@H](CN2CCC[C@H]2C(F)(F)F)CN1` [Example 36, 1-{6-[(4-Fluorophenyl)methyl]-3,3-dimethyl-1H,2H,3H-pyrrolo[3,2-b]pyridin-1-yl}-2-[(2R,5R)-5-methyl-2-{[(2S)-2-(trifluoromethyl)pyrrolidin-1-yl]methyl}piperazin-1-yl]ethan-1-one], the EC50 was 12 nM in assay [1] (setting [5]) and below 1000 nM in assay [1] (setting [3]).

As for `C[C@@H]1CN(CC(=O)N2CC(C)(C)c3ncc(Cc4ccc(F)cc4)cc32)[C@@H](CN2CCC[C@H]2CF)CN1` [Example 30, 2-[(2R,5R)-2-{[(2S)-2-(Fluoromethyl)pyrrolidin-1-yl]methyl}-5-methylpiperazin-1-yl]-1-{6-[(4-fluorophenyl)methyl]-3,3-dimethyl-1H,2H,3H-pyrrolo[3,2-b]pyridin-1-yl}ethan-1-one dihydrochloride], the EC50 in assay [1] (setting [5]) was 1.2 nM; in assay [1] (setting [3]), below 1000 nM. With `CC1CC(=O)CCN1C[C@H]1CN[C@H](C)CN1CC(=O)N1CC(C)(C)c2ncc(Cc3ccc(F)cc3)cc21` (single isomer, unassigned) [Example 40, dihydrochloride], the EC50 in assay [1] (setting [4]) was 2.8 nM. For `CC1CC(=O)CCN1C[C@H]1CN[C@H](C)CN1CC(=O)N1CC(C)(C)c2ncc(Cc3ccc(F)cc3)cc21` (single isomer, unassigned) [Example 39, (2R or 2S)-1-{[(2R,5R)-1-(2-{6-[(4-Fluorophenyl)methyl]-3,3-dimethyl-1H,2H,3H-pyrrolo[3,2-b]pyridin-1-yl}-2-oxoethyl)-5-methylpiperazin-2-yl]methyl}-2-methylpiperidin-4-one dihydrochloride], the EC50 in assay [1] (setting [5]) is 5.4 nM; in assay [1] (setting [3]) it was below 1000 nM.

As to `C[C@@H]1CN(CC(=O)N2CC(C)(C)c3ncc(C(O)c4ccc(F)cc4F)cc32)[C@@H](CN2[C@H](C)COC[C@H]2C)CN1` (single isomer, unassigned) [Example 103, (R or S)-1-[6-[(2,4-Difluorophenyl)(hydroxy)meth-yl]-3,3-dimethyl-1H,2H,3H-pyrrolo[3,2-b]pyridin-1-yl}-2-[(2R,5R)-2-{[(3R,5R)-3,5-dimethylmorpholin-4-yl]methyl}-5-methylpiperazin-1-yl]ethan-1-one dihydrochloride], the EC50 was 2.8 nM in assay [1] (setting [4]) and below 1000 nM in assay [1] (setting [3]). Take `C[C@@H]1CN(CC(=O)N2CC(C)(C)c3ncc(Cc4ccc(F)cc4)cc32)[C@@H](CN2CCC(F)(F)CC2)CN1` [Example 4, 2-[(2R,5R)-2-[(4,4-Difluoropiperidin-1-yl)methyl]-5-methylpiperazin-1-yl]-1-{6-[(4-fluorophenyl)methyl]-3,3-dimethyl-1H,2H,3H-pyrrolo[3,2-b]pyridin-1-yl}ethan-1-one dihydrochloride]: the EC50 was 6.8 nM in assay [1] (setting [5]) and below 1000 nM in assay [1] (setting [3]). For `C[C@@H]1CN(CC(=O)N2CC(C)(C)c3ncc(C(O)c4ccc(F)c(F)c4)cc32)[C@@H](CN2[C@H](C)COC[C@H]2C)CN1` (single isomer, unassigned) [Example 109, (R or S)-1-{6-[(3,4-Difluorophenyl)(hydroxy)meth-yl]-3,3-dimethyl-1H,2H,3H-pyrrolo[3,2-b]pyridin-1-yl}-2-[(2R,5R)-2-{[(3R,5R)-3,5-dimethylmorpholin-4-yl]methyl}-5-methylpiperazin-1-yl]ethan-1-one dihydrochloride], the EC50 in assay [1] (setting [4]) was 9.7 nM; in assay [1] (setting [3]), below 1000 nM. Regarding `C[C@@H]1CN(CC(=O)N2CC(C)(C)c3ncc(C(O)c4ccccc4)cc32)[C@@H](CN2[C@H](C)COC[C@H]2C)CN1` (single isomer, unassigned) [Example 113, 2-[(2R,5R)-2-{[(3R,5R)-3,5-Dimethylmorpholin-4-yl]methyl}-5-methylpiperazin-1-yl]-1-{(R or S)-6-[hydroxy(phenyl)methyl]-3,3-dimethyl-1H,2H,3H-pyrrolo[3,2-]pyridin-1-yl}ethan-1-one dihydrochloride], the EC50 in assay [1] (setting [5]) is 9.4 nM; in assay [1] (setting [3]) it was below 1000 nM.

Take `CC(C)[C@@H]1COCCN1C[C@H]1CN[C@H](C)CN1CC(=O)N1CC(C)(C)c2ncc(Cc3ccc(F)cc3)cc21` [Example 13, 1-{6-[(4-Fluorophenyl)methyl]-3,3-dimethyl-1H,2H,3H-pyrrolo[3,2-b]pyridin-1-yl)-2-[(2R,5R)-5-methyl-2-{[(3R)-3-(propan-2-yl)morpholin-4-yl]methyl}piperazin-1-yl]ethan-1-one dihydrochloride]: the EC50 was 1.2 nM in assay [1] (setting [5]) and below 1000 nM in assay [1] (setting [3]).

On to `C[C@@H]1CN(CC(=O)N2CC(C)(C)c3ncc(Cc4ccc(F)cc4F)cc32)[C@@H](CN2C[C@H](CO)OC[C@H]2C)CN1` [Example 120, 1-{6-[(2,4-Difluorophenyl)methyl]-3,3-dimethyl-1H,2H,3H-pyrrolo[3,2-b]pyridin-1-yl}-2-[(2R,5R)-2-{[(2R,5R)-2-(hydroxymethyl)-5-methylmorpholin-4-yl]methyl}-5-methylpiperazin-1-yl]ethan-1-one, dihydrochloride], for which the EC50 was 0.3 nM in assay [1] (setting [5]) and below 1000 nM in assay [1] (setting [3]).

Values taken from US9980973B2, “Bicyclic heterocycle compounds and their uses in therapy” (ASTEX THERAPEUTICS LIMITED, priority 2012, dated 2018).
